ChEMBL document CHEMBL4627341, “Synthesis and evaluation of anti-tumor activity of novel triazolo[1,5-a] pyrimidine on cancer cells by induction of cellular apoptosis and inhibition of epithelial-to-mesenchymal transition process” (Bioorg Med Chem Lett, 2020)
Active and inactive are the calls of the source. No cut-off for these calls is given here.

Key:
A-375 [1] = assay: Cytotoxicity against human A375 cells assessed as reduction in cell viability incubated for 48 hrs by MTT assay; type: functional, cell-based; settings: A-375, 48 h
NHDF = assay: Cytotoxicity against human HDF cells assessed as reduction in cell viability incubated for 48 hrs by MTT assay; type: cell-based
LNCaP [2] = assay: Cytotoxicity against human LNCAP cells assessed as reduction in cell viability incubated for 48 hrs by MTT assay; type: functional, cell-based
PC-3 [3] = assay: Cytotoxicity against human PC3 cells assessed as reduction in cell viability incubated for 48 hrs by MTT assay; type: functional, cell-based; settings: PC-3, 48 h
LNCaP [4] = assay: Induction of cell death in human LNCAP cells assessed as morphological changes by DAPI staining based inverted fluorescence microscopy; type: functional
A-375 [5] = assay: Induction of cell death in human A375 cells assessed as chromatin fragmentation by DAPI staining based inverted fluorescence microscopy; type: functional
LNCaP [6] = assay: Inhibition of cell migration at human LNCAP cells incubated for 24 hrs by phase contrast microscopy based wound healing assay; type: functional
PC-3 [7] = assay: Induction of cell death in human PC3 cells assessed as chromatin fragmentation by DAPI staining based inverted fluorescence microscopy; type: functional
A-375 [8] = assay: Induction of cell death in human A375 cells assessed as morphological changes by DAPI staining based inverted fluorescence microscopy; type: functional
LNCaP [9] = assay: Inhibition of epithelial-mesenchymal transition in human LNCAP cells assessed as increase in E-cadherin mRNA expression by qRT-PCR analysis; type: functional, cell-based
PC-3 [10] = assay: Induction of cell death in human PC3 cells assessed as morphological changes by DAPI staining based inverted fluorescence microscopy; type: functional
LNCaP [11] = assay: Inhibition of epithelial-mesenchymal transition in human LNCAP cells assessed as decrease in vimentin mRNA expression level by qRT-PCR analysis; type: functional, cell-based
LNCaP [12] = assay: Induction of cell death in human LNCAP cells assessed as chromatin fragmentation by DAPI staining based inverted fluorescence microscopy; type: functional
LNCaP [13] = assay: Induction of apoptosis in human LNCAP cells assessed as upregulation of Bax mRNA expression by qRT-PCR analysis; type: functional, cell-based
LNCaP [14] = assay: Induction of apoptosis in human LNCAP cells assessed as downregulation of Bcl2 mRNA expression by qRT-PCR analysis; type: functional, cell-based

## CNc1c([N+](=O)[O-])c(-c2ccncc2)nc2ncnn12
A-375 [1]
  IC50: > 100 µM
NHDF
  IC50: > 100 µM
LNCaP [2]
  IC50: 31.7 µM
PC-3 [3]
  IC50: > 100 µM

## CNC1=C([N+](=O)[O-])C(c2ccc(C(F)(F)F)cc2)Nc2ncnn21 (configuration not stated)
A-375 [1]
  IC50: 63.4 µM
NHDF
  IC50: > 100 µM
LNCaP [2]
  IC50: > 100 µM
PC-3 [3]
  IC50: > 100 µM

## CNC1=C([N+](=O)[O-])C(c2ccccc2Cl)Nc2ncnn21 (configuration not stated)
A-375 [1]
  IC50: > 100 µM
NHDF
  IC50: > 100 µM
LNCaP [2]
  IC50: > 100 µM
PC-3 [3]
  IC50: 63.3 µM

## CNC1=C([N+](=O)[O-])C(c2cccc(F)c2)Nc2ncnn21 (configuration not stated)
A-375 [1]
  IC50: 61.3 µM
NHDF
  IC50: > 100 µM
LNCaP [2]
  IC50: > 100 µM
PC-3 [3]
  IC50: 55.6 µM

## CNC1=C([N+](=O)[O-])C(c2ccc(Br)cc2)Nc2ncnn21 (configuration not stated)
A-375 [1]
  IC50: > 100 µM
NHDF
  IC50: > 100 µM
LNCaP [2]
  IC50: > 100 µM
PC-3 [3]
  IC50: > 100 µM

## CNC1=C([N+](=O)[O-])C(c2ccc(Cl)cc2)Nc2ncnn21 (configuration not stated)
A-375 [1]
  IC50: > 100 µM
NHDF
  IC50: > 100 µM
LNCaP [2]
  IC50: > 100 µM
PC-3 [3]
  IC50: > 100 µM

## COc1cc([C@@H]2c3cc4c(cc3[C@@H](O[C@@H]3O[C@@H]5CO[C@@H](C)O[C@H]5[C@H](O)[C@H]3O)[C@H]3COC(=O)[C@H]23)OCO4)cc(OC)c1O [ETOPOSIDE]
A-375 [1]
  IC50: 24.5 µM
NHDF
  IC50: > 100 µM
LNCaP [2]
  IC50: 31.2 µM
PC-3 [3]
  IC50: 30 µM

## CNC1=C([N+](=O)[O-])C(c2ccc([N+](=O)[O-])cc2)Nc2ncnn21 (configuration not stated)
LNCaP [4]
  Activity: Active
A-375 [5]
  Activity: Active
LNCaP [6]
  inhibition: Active
PC-3 [7]
  Activity: Active
A-375 [1]
  IC50: 31.7 µM
NHDF
  IC50: > 100 µM
LNCaP [2]
  IC50: 28.6 µM
A-375 [8]
  Activity: Active
LNCaP [9]
  inhibition: Active
PC-3 [3]
  IC50: 65 µM
PC-3 [10]
  Activity: Active
LNCaP [11]
  inhibition: Active
LNCaP [12]
  Activity: Active
LNCaP [13]
  Activity: Active
LNCaP [14]
  Activity: Active

## CNC1=C([N+](=O)[O-])C(c2ccccc2)Nc2ncnn21 (configuration not stated)
A-375 [1]
  IC50: > 100 µM
NHDF
  IC50: > 100 µM
LNCaP [2]
  IC50: > 100 µM
PC-3 [3]
  IC50: 45 µM
